Assay in all cases: Bacteriostatic ring test on double-layer agar
Common to all, as to format: cell-based

In test [1] the test system is Salmonella enteritidis (strain name: CVCC3377). To be noted: 50 μL filtrate (combination 25 uL + 25 uL), double-layer LB agar, 37° C., 18 h; FIG. 1. As to the method: (§1) Salmonella Pullorum (strain name: CVCC1800), Salmonella enteritidis (strain name: CVCC3377) and Salmonella typhimurium (strain name: ATCC14028) were respectively resuscitated in a LB agar plate (with the formula as shown in Table 4) (cultured in a 5% CO2 incubator at 37° C. for 16 h). Single colonies were picked and subjected to shaking culture until OD600=0.8. The bacterial solution was inoculated into a soft agar medium containing 5% LB (with the formula as shown in Table 5) at about 42° C. in a proportion of 1:1,000, and then spread onto a LB agar plate to form an upper and lower double-layer agar medium. 30 min later, after the soft agar was cooled and solidified, a mixed solution of 50 μL of the filtrate obtained in Example 1 (the Microcin MccY), 50 μL of the filtrate obtained in Example 2, 50 μL of the filtrate obtained in Example 3 (the Microcin MccJ25), 25 uL of the filtrate obtained in Example 1 (the Microcin MccY) and 25 uL of the filtrate obtained in Example 3 (the Microcin MccJ25) was taken and added into the upper and lower double-layer agar medium containing Salmonella Pullorum, Salmonella enteritidis and Salmonella typhimurium. The upper and lower double-layer agar medium was then placed into a 5% CO2 bacterial incubator at 37° C. for static culture for 18 h, and then observed for a bacteriostatic ring.

The test system of test [2] is Salmonella london (strain name: CVCC2206). As to conditions: 50 μL filtrate (combination 25 uL + 25 uL), double-layer LB agar, 37° C., 18 h; FIG. 2. As to the method: (§2) Salmonella kentucky (strain name: BNCC239114), Salmonella Infantis (strain name: CMCC50041) and Salmonella london (strain name: CVCC2206) were respectively resuscitated in a LB agar plate (with the formula as shown in Table 4) (cultured in a 5% CO2 incubator at 37° C. for 16 h). Single colonies were picked and subjected to shaking culture until OD600=0.8. The bacterial solution was inoculated into a soft agar medium containing 5% LB (with the formula as shown in Table 5) at about 42° C. in a proportion of 1:1,000, and then spread onto a LB agar plate to form an upper and lower double-layer agar medium. 30 min later, after the soft agar was cooled and solidified, a mixed solution of 50 μL of the filtrate obtained in Example 1 (the Microcin MccY), 50 μL of the filtrate obtained in Example 2, 50 μL of the filtrate obtained in Example 3 (the Microcin MccJ25), 25 uL of the filtrate obtained in Example 1 (the Microcin MccY) and 25 uL of the filtrate obtained in Example 3 (the Microcin MccJ25) was taken and added into the upper and lower double-layer agar medium containing […]. The upper and lower double-layer agar medium was then placed into a 5% CO2 bacterial incubator at 37° C. for static culture for 18 h, and then observed for a bacteriostatic ring.

In test [3] the test system is Salmonella Infantis (strain name: CMCC50041). To be noted: 50 μL filtrate (combination 25 uL + 25 uL), double-layer LB agar, 37° C., 18 h; FIG. 2. Here is the method:
as §2

The subject of test [4] is Salmonella kentucky (strain name: BNCC239114). To be noted: 50 μL filtrate (combination 25 uL + 25 uL), double-layer LB agar, 37° C., 18 h; FIG. 2. Here is the method: as §2
For test [5], the system named is Shigella flexneri (strain name: CMCC51572). As to conditions: 50 μL filtrate, double-layer LB agar, 37° C., 18 h; FIG. 3. As to the method: (§3) Shigella flexneri (strain name: CMCC51572) and Shigella sonnei (strain name: CMCC51592) were respectively resuscitated in a LB agar plate (with the formula as shown in Table 4) (cultured in a 5% CO2 incubator at 37° C. for 16 h). Single colonies were picked and subjected to shaking culture until OD600=0.8. The bacterial solution was inoculated into a soft agar medium containing 5% LB (with the formula as shown in Table 5) at about 42° C. in a proportion of 1:1,000, and then spread onto a LB agar plate to form an upper and lower double-layer agar medium. 30 min later, after the soft agar was cooled and solidified, each 50 μL of the filtrate obtained in Example 1 (the Microcin MccY) and methanol were respectively taken and added into the upper and lower double-layer agar medium containing Shigella flexneri and Shigella sonnei (the control group was added with the same amount of the filtrate obtained in Example 2). The upper and lower double-layer agar medium was then placed into a 5% CO2 bacterial incubator at 37° C. for static culture for 18 h, and then observed for a bacteriostatic ring.

In test [6] the test system is Shigella sonnei (strain name: CMCC51592). To be noted: 50 μL filtrate, double-layer LB agar, 37° C., 18 h; FIG. 3. Here is the method:
as §3

Test [7] deals with Salmonella typhimurium (strain name: ATCC14028). To be noted: 50 μL filtrate (combination 25 uL + 25 uL), double-layer LB agar, 37° C., 18 h; FIG. 1. Here is the method: as §1
In test [8] the test system is Salmonella Pullorum (strain name: CVCC1800). To be noted: 50 μL filtrate (combination 25 uL + 25 uL), double-layer LB agar, 37° C., 18 h; FIG. 1. As to the method: as §1

In the case of “MccJ25: Known Microcin MccJ25 (SEQ ID NO.10); tested as filtrate expressed by pET-28a(+)-MccJ25-containing BL21(DE3) bacteria (GGAGHVPEYFVGIGTPISFYG; Primer) [reference compound]”, the “bacteriostatic effect (bacteriostatic ring) against Salmonella enteritidis” value in test [1] was “inhibitory effect”. In test [2], the “bacteriostatic effect (bacteriostatic ring) against Salmonella london” value was “no inhibitory effect”. The “bacteriostatic effect (bacteriostatic ring) against Salmonella Infantis” value in test [3] is given as “no inhibitory effect”. The “bacteriostatic effect (bacteriostatic ring) against Salmonella kentucky” value in test [4] is recorded as “no inhibitory effect”.
With “MccY: Microcin with amino acid sequence GGRGHIAEYFSGPITQVSFYG (SEQ ID NO.1); tested as filtrate expressed by pET-28a(+)-MccY-containing BL21(DE3) bacteria (Primer)”, the “bacteriostatic effect (bacteriostatic ring) against Shigella flexneri” value in test [5] is “not sensitive”. In addition, the “bacteriostatic effect (bacteriostatic ring) against Shigella sonnei” value in test [6] is on record as “sensitive”. Further, in test [7], the “bacteriostatic effect (bacteriostatic ring) against Salmonella typhimurium” value is listed as “inhibitory effects”. For the same substance, in test [8], the “bacteriostatic effect (bacteriostatic ring) against Salmonella Pullorum” value is listed as “inhibitory effects”. Besides, the “bacteriostatic effect (bacteriostatic ring) against Salmonella london” value in test [2] is recorded as “inhibitory effects”. Moreover, the “bacteriostatic effect (bacteriostatic ring) against Salmonella Infantis” value in test [3] is “inhibitory effects”. Further, the “bacteriostatic effect (bacteriostatic ring) against Salmonella kentucky” value in test [4] was “inhibitory effects”.

These data come from patent US11447529B2, “Microcin MccY, and preparation method and use thereof” (South China Agricultural University, priority 2021, dated 2022).
